Experimental data taken from patent publication US10434103B2, “Crystal of 3,5-disubstituted benzene alkynyl compound” (TAIHO PHARMACEUTICAL CO., LTD., priority 2015, dated 2019).

How the values were obtained:
[1] = Oral absorbability: plasma concentration of compound 1 after oral administration to mice; conditions: BALB/c mice, 50 mg/kg, suspension in 0.5% HPMC aqueous solution, plasma sampled 0.5-6 hours
Protocol: (§1) After 0.5, 1, 2, 4, and 6 hours from administration, blood of each mouse was collected from the retro-orbital sinus, and the concentration of compound 1 in plasma was measured.

[2] = Differential scanning calorimetry (DSC), phase transition on heating; conditions: when the temperature was increased (10° C./min)
Protocol: DSC measurement was performed under the following conditions.
Device: TA Instruments Q1000
Sample Container: made of aluminum
Temperature Increase Rate: 10° C./min
Atmospheric Gas: Nitrogen
Nitrogen Gas Flow: 50 ml/min

in vivo = conditions: BALB/c, mouse, plasma, po, 50 mg/kg
Protocol: as §1

For `C=CC(=O)N1CC[C@H](n2nc(C#Cc3cc(OC)cc(OC)c3)c3c(N)ncnc32)C1` [Crystal II, (S)-1-(3-(4-amino-3-((3,5-dimethoxyphenyl)ethynyl)-1H-pyrazolo[3,4-d]pyrimidin-1-yl)-1-pyrrolidinyl)-2-propen-1-one], the AUC [1] was 4.99 µM·h and the “peak that suggests a phase transition in DSC measurement” value [2] was “did not exhibit a peak that suggests a phase transition”.

For `C=CC(=O)N1CC[C@H](n2nc(C#Cc3cc(OC)cc(OC)c3)c3c(N)ncnc32)C1` [Crystal I, (S)-1-(3-(4-amino-3-((3,5-dimethoxyphenyl)ethynyl)-1H-pyrazolo[3,4-d]pyrimidin-1-yl)-1-pyrrolidinyl)-2-propen-1-one], the AUC (in vivo) was 9.82 µM·h and the “peak that suggests a phase transition in DSC measurement” value [2] was “did not exhibit a peak that suggests a phase transition”.
